From publication PMC8828861 (Communications Biology, 2022) come the findings set out here.

This assay concerns the target M. tuberculosis Rho (MtbRho) (Mycobacterium tuberculosis, UniProt P9WHF3, M495L). Format: biochemical.

On to `Nc1ncnc2c1ncn2[C@@H]1O[C@H](COP(=O)(O)OP(=O)(O)OP(=O)(O)O)[C@@H](O)[C@H]1O` [ATP], for which the “TLC NTP hydrolysis assay with poly[rC]” value was “the M495L mutant hydrolyses ATP at a steady-state rate similar to that measured for EcRho”.
